Measurements published in US10787446B2 (GENENTECH, INC., priority 2015, dated 2020).

Target: T1, hNav1.7 and the β1 subunit (Homo sapiens, UniProt Q15858)
T1 construct: expressed in transfected cells
Assay: Tritiated compound competitive binding to membranes from cells heterologously expressing hNav1.7 and the β1 subunit (LBA)
Conditions: competition with 100 pM [3H]compound, 18 h, room temperature; IC50 by 4 parameter logistic model
How it was run: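 Membranes were incubated 18 h at room temperature with 100 pM [3H]-labelled NaV1.7 inhibitor and increasing test compound in 100 mM NaCl, 20 mM Tris HCl, pH 7.4. Bound radioligand was filtered on PEI-soaked GF/C, washed, and counted by scintillation. IC50 from a 4-parameter logistic fit of % inhibition.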

T1 sequence (Q15858 whole entry): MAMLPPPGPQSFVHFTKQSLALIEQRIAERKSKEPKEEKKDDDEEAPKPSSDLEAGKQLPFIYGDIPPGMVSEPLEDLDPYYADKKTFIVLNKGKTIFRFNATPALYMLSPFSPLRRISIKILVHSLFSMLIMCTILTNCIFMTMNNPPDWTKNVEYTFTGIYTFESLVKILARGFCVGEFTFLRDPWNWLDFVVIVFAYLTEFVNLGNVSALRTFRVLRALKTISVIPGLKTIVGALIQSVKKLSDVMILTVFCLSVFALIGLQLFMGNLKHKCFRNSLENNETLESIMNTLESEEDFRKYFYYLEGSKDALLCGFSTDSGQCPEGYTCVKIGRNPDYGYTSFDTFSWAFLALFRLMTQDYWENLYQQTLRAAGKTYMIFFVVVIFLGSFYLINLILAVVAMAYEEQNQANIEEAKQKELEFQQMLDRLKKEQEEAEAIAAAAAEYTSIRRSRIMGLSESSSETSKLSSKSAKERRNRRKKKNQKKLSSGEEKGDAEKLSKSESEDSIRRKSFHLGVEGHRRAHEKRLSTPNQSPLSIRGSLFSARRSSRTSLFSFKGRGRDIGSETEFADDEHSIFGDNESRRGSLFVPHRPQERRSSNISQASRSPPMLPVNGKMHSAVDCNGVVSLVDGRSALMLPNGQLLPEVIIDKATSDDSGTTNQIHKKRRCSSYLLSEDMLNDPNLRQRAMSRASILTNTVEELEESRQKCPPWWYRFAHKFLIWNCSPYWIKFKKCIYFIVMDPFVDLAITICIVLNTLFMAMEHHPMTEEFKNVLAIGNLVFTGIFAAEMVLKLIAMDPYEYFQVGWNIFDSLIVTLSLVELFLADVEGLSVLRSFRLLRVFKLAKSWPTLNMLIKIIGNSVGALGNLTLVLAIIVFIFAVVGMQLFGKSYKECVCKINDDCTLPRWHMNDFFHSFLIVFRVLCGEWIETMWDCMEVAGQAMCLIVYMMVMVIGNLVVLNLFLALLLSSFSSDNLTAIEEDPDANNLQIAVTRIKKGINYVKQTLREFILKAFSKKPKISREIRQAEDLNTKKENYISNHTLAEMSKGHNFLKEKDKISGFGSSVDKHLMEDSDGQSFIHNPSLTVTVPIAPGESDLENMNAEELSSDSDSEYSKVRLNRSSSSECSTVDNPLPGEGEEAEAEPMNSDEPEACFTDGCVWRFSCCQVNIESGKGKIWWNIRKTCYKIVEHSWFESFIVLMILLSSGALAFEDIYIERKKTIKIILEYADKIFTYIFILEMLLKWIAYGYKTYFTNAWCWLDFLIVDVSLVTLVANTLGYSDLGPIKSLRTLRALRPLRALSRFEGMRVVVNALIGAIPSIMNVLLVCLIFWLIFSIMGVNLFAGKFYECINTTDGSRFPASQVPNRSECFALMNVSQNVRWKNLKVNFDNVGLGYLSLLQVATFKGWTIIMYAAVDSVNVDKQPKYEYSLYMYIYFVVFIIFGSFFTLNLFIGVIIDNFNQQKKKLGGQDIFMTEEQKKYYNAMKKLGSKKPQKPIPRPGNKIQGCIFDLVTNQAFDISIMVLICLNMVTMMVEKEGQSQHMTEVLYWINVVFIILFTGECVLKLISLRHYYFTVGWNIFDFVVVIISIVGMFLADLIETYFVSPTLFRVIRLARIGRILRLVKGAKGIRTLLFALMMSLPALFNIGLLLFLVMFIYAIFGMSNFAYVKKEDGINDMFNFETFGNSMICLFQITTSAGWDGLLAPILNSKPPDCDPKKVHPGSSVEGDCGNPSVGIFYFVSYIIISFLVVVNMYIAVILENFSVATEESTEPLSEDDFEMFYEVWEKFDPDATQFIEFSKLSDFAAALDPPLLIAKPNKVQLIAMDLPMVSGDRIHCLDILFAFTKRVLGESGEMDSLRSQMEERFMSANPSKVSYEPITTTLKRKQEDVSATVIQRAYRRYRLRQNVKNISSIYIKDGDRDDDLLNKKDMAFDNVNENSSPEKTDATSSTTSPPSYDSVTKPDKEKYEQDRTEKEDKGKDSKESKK
T1 sequence (Q07699 19-218 partner): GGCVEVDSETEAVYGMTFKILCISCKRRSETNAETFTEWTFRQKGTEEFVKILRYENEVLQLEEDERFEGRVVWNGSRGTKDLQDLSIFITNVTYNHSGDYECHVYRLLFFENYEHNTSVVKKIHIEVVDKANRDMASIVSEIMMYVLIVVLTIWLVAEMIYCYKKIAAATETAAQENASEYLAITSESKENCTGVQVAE

Row | Compound | Nav1.7 (LBA)
1 | O=S(=O)(Nc1ncns1)c1ccc2c(c1)OCC[C@@H]2N1CCC(F)(F)C[C@H]1c1ccccc1 (single isomer, unassigned) [Example 140] | 0.0144 µM
2 | O=S(=O)(Nc1nccs1)c1cc2c(cc1F)[C@@H](N1CC[C@@H](C(F)(F)F)C[C@H]1c1ccc(F)c(F)c1)CCO2 [Example 198, (S)-4-((2S,4R)-2-(3,4-difluorophenyl)-4-(trifluoromethyl)piperidin-1-yl)-6-fluoro-N-(thiazol-2-yl)chroman-7-sulfonamide] | 0.000649 µM
3 | O=S(=O)(Nc1ncns1)c1cc2c(cc1F)[C@@H](N1CCCC[C@H]1c1ccccc1)CCO2 (single isomer, unassigned) [Example 84] | 0.00991 µM
4 | Cn1nccc1[C@H]1CCCCN1[C@H]1CCOc2cc(S(=O)(=O)Nc3ncns3)ccc21 [Example 42, (S)-4-((R)-2-(1-methyl-1H-pyrazol-5-yl)piperidin-1-yl)-N-(1,2,4-thiadiazol-5-yl)chromane-7-sulfonamide] | 0.142 µM
5 | CN(Cc1ccccc1)[C@H]1CCOc2cc(S(=O)(=O)Nc3ncns3)c(F)cc21 [Example 89, (S)-4-(benzyl(methyl)amino)-6-fluoro-N-(1,2,4-thiadiazol-5-yl)chromane-7-sulfonamide] | 0.096 µM
6 | O=S(=O)(Nc1ncns1)c1ccc2c(c1)OCC[C@H]2N1CCN(CC(F)(F)F)C[C@H]1c1ccccc1 (single isomer, unassigned) [Example 83] | 0.0128 µM
7 | O=S(=O)(Nc1ncns1)c1ccc2c(c1)OCC[C@@H]2N1CC[C@H](CF)C[C@@H]1c1ccc(F)cc1 [Example 183, (S)-4-((2R,4S)-4-(fluoromethyl)-2-(4-fluorophenyl)piperidin-1-yl)-N-(1,2,4-thiadiazol-5-yl)chroman-7-sulfonamide] | 0.00652 µM
8 | O=S(=O)(Nc1nccs1)c1cc2c(cc1F)[C@H](N1CC[C@@H](C(F)(F)F)C[C@H]1c1ccc(F)cc1)CCO2 (racemic) [Example 93] | 0.00333 µM
9 | O=S(=O)(Nc1ncns1)c1ccc2c(c1)OCC[C@@H]2N1CCCC[C@H]1CCO (single isomer, unassigned) [Example 151] | 3.51 µM
10 | O=S(=O)(Nc1ncns1)c1ccc2c(c1)OCC[C@@H]2NC(CCC(F)(F)F)c1ccccc1 (stereo partly drawn) [Example 207, (4S)—N-(1,2,4-thiadiazol-5-yl)-4-((4,4,4-trifluoro-1-phenylbutyl)amino)chroman-7-sulfonamide] | 0.039 µM
11 | O=S(=O)(Nc1ncns1)c1ccc2c(c1)OCC[C@@H]2N1CCCC[C@@H]1C1CCCCC1 (single isomer, unassigned) [Example 156] | 0.907 µM
12 | CN(Cc1ccccc1)[C@H]1CCOc2cc(S(=O)(=O)Nc3ncns3)ccc21 [Example 120, (S)-4-(benzyl(methyl)amino)-N-(1,2,4-thiadiazol-5-yl)chroman-7-sulfonamide] | 0.376 µM
13 | O=S(=O)(Nc1nccs1)c1ccc2c(c1)OCC[C@@H]2N1CCCC[C@H]1c1ccc(F)cc1 (single isomer, unassigned) [Example 101] | 0.022 µM
14 | O=S(=O)(Nc1ncns1)c1cc(F)c(CN2CC[C@H](OC(F)(F)F)C[C@H]2c2ccccc2)cc1F (single isomer, unassigned) [Example 36] | 0.538 µM
15 | O=S(=O)(Nc1ncns1)c1cc(Cl)c(CN2CCCCC2c2ccncc2)cc1F (stereo not drawn) [Example 69, 5-chloro-2-fluoro-4-((2-(pyridin-4-yl)piperidin-1-yl)methyl)-N-(1,2,4-thiadiazol-5-yl)benzenesulfonamide] | 0.21 µM
16 | O=S(=O)(Nc1nccs1)c1cc2c(cc1F)[C@H](N1CC[C@@H](C(F)(F)F)C[C@H]1c1cn[nH]c1)CCO2 [Example 199, (R)-4-((2S,4R)-2-(1H-pyrazol-4-yl)-4-(trifluoromethyl)piperidin-1-yl)-6-fluoro-N-(thiazol-2-yl)chroman-7-sulfonamide] | 0.11 µM
17 | O=S(=O)(Nc1ncns1)c1ccc2c(c1)CCC[C@@H]2N1CCCC[C@@H]1c1ccccc1 (single isomer, unassigned) [Example 56] | 1.25 µM
18 | O=S(=O)(Nc1ncns1)c1cc2c(cc1F)[C@H](N1CCCC[C@H]1c1ccccc1)CCO2 (single isomer, unassigned) [Example 85] | 0.218 µM
